Results published in patent US20090162421A1, “DRUGS AS WELL AS THEIR PRODUCTION AND USE IN THE TREATMENT OF PAIN-ASSOCIATED NEUROPATHIES” (PAZ Arzneimittel-Entwicklungsgesellschaft mbH, priority 2007, published 2009).

What was measured:
[1] = test system: spared nerve injury model of peripheral neuropathic pain; experiment: Spared Nerve Injury model (SNI model), treatment day 10 to 21 postoperatively (Example 1); type: in vivo, rats; conditions: for reduction of allodynia: day 10 to 21 postoperatively
From the text: (§1) The Chronic Constriction Injury model (CCI model) [Bennet G J, Xie Y K: A peripheral mononeuropathy in rat that produces disorders of pain sensation like those seen in man. Pain 1988, 33:87-107] and the Spared Nerve Injury model (SNI model) [Decosterd I, Woolf C J: Spared Nerve injury: an animal model of persistent peripheral neuropathic pain. Pain 2000, 87:149-158] were used as animal models that show essential elements of the clinical pain syndromes in the presence of neuropathies. In both models, the animals sustain defined nerve damage by surgical means. The pain behavior of the animals can be used to quantitatively measure the efficacy of substances in pain-associated neuropathies. The investigations were carried out on rats according to the published models. […] The same is not true of most other species of laboratory animals.
(§2) In a first series of experiments, the animals sustained a nerve lesion by surgical means according to the SNI model and according to the CCI model. From day 10 to day 21 postoperatively, groups of 12 animals each received intraperitoneal administrations of the test substances twice daily. In tests according to the SNI model, in each application, 2.5, 4.5 or 9 mg tarenflurbil (referred to as RF2.5, RF4.5, and RF9), 4.5 mg S-flurbiprofen (SF4.5), pure vehicle (vehicle—as control) or 25 mg gabapentin (Gaba25—as reference substance), each per kg of body weight, were administered. The behavioral parameters that are typical of pain-associated neuropathies were measured, namely mechanical allodynia using Frey's aestesiometer, cold allodynia using the acetone test, and cold hyperalgesia using the cold plate at 2° C. In tests according to the CCI model, 4.5 or 9 mg/kg body weight of tarenflurbil (RF4.5 and RF9), 9 mg/kg body weight S-flurbiprofen (SF9) or vehicle (vehicle) were administered per group. As before, mechanical/static allodynia, cold allodynia and cold hyperalgesia were measured using Frey's hair test, the acetone test, and the cold plate at 2° C., respectively.

[2] = test system: chronic constriction injury model of peripheral neuropathic pain; experiment: Chronic Constriction Injury model (CCI model), treatment day 10 to 21 postoperatively (Example 1); type: in vivo; conditions: rats
From the text: as §1, §2

[3] = design: species or system rats; conditions: rat, in vivo, ip, 4.5 mg/kg
[4] = test system: spared nerve injury model of peripheral neuropathic pain; experiment: SNI model, treatment from the first postoperative day for two weeks (Example 2); type: in vivo, rats
Protocol: In another series of experiments, animals having sustained nerve damage according to the SNI model were treated twice daily with intraperitoneal doses of 9 mg/kg body weight tarenflurbil or vehicle from the first postoperative day and for a period of two weeks. Both the mechanical dynamic allodynia (on the ipsilateral and on the contralateral side) and the cold allodynia (ipsilateral only) were measured by means of Frey's aesthesiometer and the cold plate at 10° C., respectively.

[5] = test system: rats that had not sustained damage; experiment: Single dose in rats that had not sustained damage (Example 3); type: in vivo; conditions: undamaged rats, single i.p. dose of 9 mg/kg, up to 6 hours after application
Protocol: For qualification of the series' of experiments mentioned above, a single dose of 9 mg/kg body weight tarenflurbil (RF9) or vehicle (vehicle) was applied intraperitoneally in another series of experiments on rats that had not sustained damage and the mechanical allodynia and the heat sensitivity were measured for up to 6 hours after the application using Frey's aesthesiometer and the Hargreaves model, respectively. […] This means that the effects measured for tarenflurbil in Examples 1 and 2 are exclusively related to the effect in pain-associated neuropathies.

[6] = humans; cited from earlier work
[7] = rats; cited from earlier work
[8] = SNI model, rats, 4.5 mg/kg twice daily i.p.
[9] = summary statement for the pharmacological models

SMILES | effect on allodynia compared with tarenflurbil ([1]; SNI model, rats, 25 mg/kg twice daily i.p., positive control) | reduction of allodynia [1, 8] | effect in models of pain-associated neuropathies [1, 9] | reduction of allodynia ([2]; 9 mg/kg twice daily i.p.) | gastrointestinal bleeding [3] | reduction of allodynia ([1]; SNI model, rats, 9 mg/kg twice daily i.p.) | efficacy relative to reference substance gabapentin ([1]; if dosed sufficiently, vs 25 mg/kg body weight gabapentin) | effect in models of pain-associated neuropathies (dose dependence) [1, 9] | reduction of allodynia ([2]; 4.5 mg/kg twice daily i.p.) | mechanical allodynia, contralateral side, vs vehicle ([4]; 9 mg/kg twice daily i.p. from first postoperative day for two weeks) | mechanical allodynia, ipsilateral side, vs vehicle ([4]; 9 mg/kg twice daily i.p. from first postoperative day, entire treatment period of two weeks, Frey's aesthesiometer) | cold allodynia, ipsilateral side, vs vehicle ([4]; 9 mg/kg twice daily i.p. from first postoperative day, entire treatment period of two weeks, cold plate at 10° C.) | time until pain-relieving effect falls to pain intensity of the vehicle group ([4]; after completion of two weeks of 9 mg/kg twice daily i.p.) | mechanical allodynia vs vehicle ([5]; Frey's aesthesiometer) | heat sensitivity vs vehicle ([5]; Hargreaves model) | inversion of the R-form to the S-form under in vivo conditions [6] | inversion of tarenflurbil to S-flurbiprofen [7]
NCC1(CC(=O)O)CCCCC1 [Gabapentin, gabapentin, reference compound] | no significant difference from tarenflurbil | – | – | – | – | – | – | – | – | – | – | – | – | – | – | – | –
C[C@H](C(=O)O)c1ccc(-c2ccccc2)c(F)c1 [S-flurbiprofen, reference compound] | – | no significant effect | does not show a significant effect | no significant effect | gastrointestinal bleeding in some animals | – | – | – | – | – | – | – | – | – | – | – | –
C[C@@H](C(=O)O)c1ccc(-c2ccccc2)c(F)c1 [tarenflurbil] | – | significant reduction | – | significant reduction | – | significant reduction | in the range of the efficacy of 25 mg/kg body weight gabapentin | dose-dependent effect | significant reduction | no difference | significantly different effect from vehicle | significantly different effect from vehicle | eight days after the end of treatment | no significant differences | no significant differences | no or no more than extremely minor inversion | basically do not invert
